{"source": "patent US20210299134A1", "about": "“TREATMENT OF B CELL MALIGNANCIES” (MEI Pharma, Inc., priority 2018, published 2021)", "key": {"[1]": {"system": "patients with relapsed B-cell malignancies (FL, CLL/SLL)", "assay": "Phase 1b study of Compound A35 as single agent: disease response rate", "assay_type": "in vivo, human", "procedure": "(§1) An intermittent dosing schedule on days 1-7 of a 28-day cycle was then evaluated after 2 cycles of daily dosing, or ≥3 cycles of daily dosing to reduce the risk of immune-related adverse events. For this analysis the intermittent schedule (IS) group is defined as patients who received Compound A35 alone or with rituximab daily for 2 cycles then switched to an intermittent schedule of 1 week per cycle, and the continuous schedule (CS) group is defined as patients who never switched to intermittent dosing or switched to intermittent dosing in cycle 4 or later cycles. Toxicity on CS is managed by a switch to IS.\nIn an ongoing Phase 1b study, Compound A35 was administered as a single agent in patients with relapsed B-cell malignancies. Patients have been enrolled in 3 cohorts: • Group A: 31 patients enrolled in a dose escalation phase of the study, with Compound A35 administered as a single agent at a dose of 60, 120, and 180 mg/day. In Group A, all patients began receiving Compound A35 on a CS. Approximately 1.5 years after the start of the study, 17 ongoing patients were switched to the IS to prevent delayed immune-mediated toxicities after various duration of exposure on the CS. […]\n31 patients received Compound A35 monotherapy at doses ≥60 mg daily on the CS, of whom 2 discontinued Compound A35 in the first 2 cycles of therapy and 29 received >2 cycles.\nA very high rate of disease response was reported in 30 patients evaluable for response in the dose escalation cohort, both in FL and CLL/SLL, with no difference in response rate across the 3 doses evaluated (Table 2)."}, "[2]": {"system": "patients with relapsed B-cell malignancies", "assay": "Phase 1b study: patient dispositions on intermittent or continuous schedule", "assay_type": "in vivo, human", "details": "Compound A35 alone arm", "procedure": "as §1\nIn an ongoing Phase 1b study, Compound A35 was administered as a single agent in patients with relapsed B-cell malignancies. Patients have been enrolled in 3 cohorts: • Group A: 31 patients enrolled in a dose escalation phase of the study, with Compound A35 administered as a single agent at a dose of 60, 120, and 180 mg/day. In Group A, all patients began receiving Compound A35 on a CS. Approximately 1.5 years after the start of the study, 17 ongoing patients were switched to the IS to prevent delayed immune-mediated toxicities after various duration of exposure on the CS.\n• Group B: 21 patients enrolled in an ongoing expansion cohort of up to 30 patients administered Compound A35 as a single agent at 60 mg/day on the CS for 2 cycles then switching to the IS in Cycle 3 (N=17) or later cycles (N=4)."}, "[3]": {"assay": "Plasma half-life", "assay_type": "in vivo", "details": "human, oral, healthy volunteers and patients with B-cell malignancies", "excerpt": "It is known that administration of an oral drug over a period equivalent to approximately 7 half-lives is necessary to achieve steady state plasma concentrations required for optimal antitumor activity, and that a period of approximately 7 half-lives is needed to clear a drug from the plasma after treatment interruption. TREGs repopulation occurs approximately 14 days after the administration of a single dose of the anti-CD25 immunotoxin denileukin diftitox (ONTAK®), a drug known to suppress TREGs. Therefore, it was hypothesized that administration of Compound A35 at 60 mg/day for 7 consecutive days will result in steady-state plasma concentrations sufficient to inhibit PI3K5 in target malignant B-cells and that 21 days without treatment will be sufficient to repopulate TREGs, which comprises 7 days to clear Compound A35 from the plasma (˜7 half-lives) and 14 days for reconstitution of TREGs after Compound A35 is cleared from the plasma."}, "[4]": {"system": "murine B-cell tumors", "assay": "Tumor exposure and retention (FIGS. 3 and 4)", "assay_type": "in vivo"}, "[5]": {"assay": "Plasma levels >IC90 and plasma versus tissue levels on intermittent dosing (FIGS. 6A-6B)", "assay_type": "in vivo, human", "details": "FIG. 6A", "excerpt": "There is also evidence pointing to a role for the PI3K pathway in T lymphocytes, which may explain these immune dysregulations. For example, in mice, genetic inactivation of p110δ results in a decrease of the function of regulatory T-cells (TREGs), a subset population of T-cells. […] In some instances, PI3K5 inhibition results in various immune-mediated toxicities such as enterocolitis and skin toxicity due to TREG suppression, as well as infections due to suppression of B-cells and effector T-cells. In some instances, treatment regimens with small molecule PI3K5 delta (or PI3K5) inhibitors on an intermittent dosing schedule (IS) are used. However, in certain instances, progression of disease is observed in subjects who are treated for B-cell malignancies, including chronic lymphocytic leukemia (CLL) and lymphomas with small molecule PI3K5 inhibitors (e.g., parsaclisib (INCB050465)) on an IS dosing regimen (see FIG. 6B). […] In some embodiments, the methods of treatment and dosing regimens and schedules described herein provide an efficacious and tolerable treatment of cancer. In some embodiments, the methods of treatment and dosing regimens and schedules described herein improve the frequency, severity and time to onset of the adverse events (AEs) associated with PI3K delta inhibitors. […]"}, "[6]": {"details": "All evaluable patients, 60 mg, n = 12"}, "[7]": {"details": "All evaluable patients, 120 mg, n = 12"}, "[8]": {"details": "All evaluable patients, 180 mg, n = 6"}, "[9]": {"details": "All evaluable patients, Total (all doses), n = 30"}, "[10]": {"details": "CLL/SLL, Total (all doses), n = 9"}, "[11]": {"details": "FL evaluable, Total (all doses), n = 21"}}}
{"smiles": "CN1CCC(c2ccccc2CC(C)(C)Nc2nc(N3CCOCC3)nc(-n3c(C(F)F)nc4ccccc43)n2)CC1", "note": "[Compound A35]", "values": [{"measurement": "Morphologic and/or metabolic complete response", "setting": "[1]; [6]", "result": "(42%)"}, {"measurement": "Morphologic and/or metabolic complete response, number of patients", "setting": "[1]; [6]", "result": 5}, {"measurement": "Overall response rate", "setting": "[1]; [6]", "result": "(92%)"}, {"measurement": "Overall response rate, number of patients", "setting": "[1]; [6]", "result": 11}, {"measurement": "Morphologic and/or metabolic complete response", "setting": "[1]; [7]", "result": "(33%)"}, {"measurement": "Morphologic and/or metabolic complete response, number of patients", "setting": "[1]; [7]", "result": 4}, {"measurement": "Overall response rate", "setting": "[1]; [7]", "result": "(92%)"}, {"measurement": "Overall response rate, number of patients", "setting": "[1]; [7]", "result": 11}, {"measurement": "Morphologic and/or metabolic complete response, number of patients", "setting": "[1]; [8]", "result": 0}, {"measurement": "Overall response rate", "setting": "[1]; [8]", "result": "(83%)"}, {"measurement": "Overall response rate, number of patients", "setting": "[1]; [8]", "result": 5}, {"measurement": "Morphologic and/or metabolic complete response", "setting": "[1]; [9]", "result": "(30%)"}, {"measurement": "Morphologic and/or metabolic complete response, number of patients", "setting": "[1]; [9]", "result": 9}, {"measurement": "Overall response rate", "setting": "[1]; [9]", "result": "(90%)"}, {"measurement": "Overall response rate, number of patients", "setting": "[1]; [9]", "result": 27}, {"measurement": "Morphologic complete response", "setting": "[1]; CLL/SLL, 60 mg, n = 6", "result": "(50%)"}, {"measurement": "Morphologic complete response, number of patients", "setting": "[1]; CLL/SLL, 60 mg, n = 6", "result": 3}, {"measurement": "Overall response rate", "setting": "[1]; CLL/SLL, 60 mg, n = 6", "result": "(100%)"}, {"measurement": "Overall response rate, number of patients", "setting": "[1]; CLL/SLL, 60 mg, n = 6", "result": 6}, {"measurement": "Morphologic complete response, number of patients", "setting": "[1]; CLL/SLL, 120 mg, n = 2", "result": 0}, {"measurement": "Overall response rate", "setting": "[1]; CLL/SLL, 120 mg, n = 2", "result": "(100%)"}, {"measurement": "Overall response rate, number of patients", "setting": "[1]; CLL/SLL, 120 mg, n = 2", "result": 2}, {"measurement": "Morphologic complete response, number of patients", "setting": "[1]; CLL/SLL, 180 mg, n = 1", "result": 0}, {"measurement": "Overall response rate", "setting": "[1]; CLL/SLL, 180 mg, n = 1", "result": "(100%)"}, {"measurement": "Overall response rate, number of patients", "setting": "[1]; CLL/SLL, 180 mg, n = 1", "result": 1}, {"measurement": "Morphologic complete response", "setting": "[1]; [10]", "result": "(33%)"}, {"measurement": "Morphologic complete response, number of patients", "setting": "[1]; [10]", "result": 3}, {"measurement": "Overall response rate", "setting": "[1]; [10]", "result": "(100%)"}, {"measurement": "Overall response rate, number of patients", "setting": "[1]; [10]", "result": 9}, {"measurement": "Morphologic and/or metabolic complete response", "setting": "[1]; FL evaluable, 60 mg, n = 6", "result": "(33%)"}, {"measurement": "Morphologic and/or metabolic complete response, number of patients", "setting": "[1]; FL evaluable, 60 mg, n = 6", "result": 2}, {"measurement": "Overall response rate", "setting": "[1]; FL evaluable, 60 mg, n = 6", "result": "(83%)"}, {"measurement": "Overall response rate, number of patients", "setting": "[1]; FL evaluable, 60 mg, n = 6", "result": 5}, {"measurement": "Morphologic and/or metabolic complete response", "setting": "[1]; FL evaluable, 120 mg, n = 10", "result": "(40%)"}, {"measurement": "Morphologic and/or metabolic complete response, number of patients", "setting": "[1]; FL evaluable, 120 mg, n = 10", "result": 4}, {"measurement": "Overall response rate", "setting": "[1]; FL evaluable, 120 mg, n = 10", "result": "(90%)"}, {"measurement": "Overall response rate, number of patients", "setting": "[1]; FL evaluable, 120 mg, n = 10", "result": 9}, {"measurement": "Morphologic and/or metabolic complete response, number of patients", "setting": "[1]; FL evaluable, 180 mg, n = 5", "result": 0}, {"measurement": "Overall response rate", "setting": "[1]; FL evaluable, 180 mg, n = 5", "result": "(80%)"}, {"measurement": "Overall response rate, number of patients", "setting": "[1]; FL evaluable, 180 mg, n = 5", "result": 4}, {"measurement": "Morphologic and/or metabolic complete response", "setting": "[1]; [11]", "result": "(21%)"}, {"measurement": "Morphologic and/or metabolic complete response, number of patients", "setting": "[1]; [11]", "result": 6}, {"measurement": "Overall response rate", "setting": "[1]; [11]", "result": "(86%)"}, {"measurement": "Overall response rate, number of patients", "setting": "[1]; [11]", "result": 18}, {"measurement": "Discontinued therapy: Adverse event", "setting": "[2]; CS Group (N = 25)", "result": "(16%)"}, {"measurement": "Discontinued therapy: Adverse event, number of patients", "setting": "[2]; CS Group (N = 25)", "result": 4}, {"measurement": "Discontinued therapy: Progressive disease", "setting": "[2]; CS Group (N = 25)", "result": "(20%)"}, {"measurement": "Discontinued therapy: Progressive disease, number of patients", "setting": "[2]; CS Group (N = 25)", "result": 5}, {"measurement": "Discontinued therapy: Adverse event, number of patients", "setting": "[2]; IS Group (N = 15)", "result": 0}, {"measurement": "Discontinued therapy: Progressive disease", "setting": "[2]; IS Group (N = 15)", "result": "(20%)"}, {"measurement": "Discontinued therapy: Progressive disease, number of patients", "setting": "[2]; IS Group (N = 15)", "result": 3}, {"measurement": "half-life", "setting": "[3]", "result": "~28", "unit": "h"}, {"measurement": "retention in murine B-cell tumors compared to idelalisib", "setting": "[4]; FIG. 4", "result": "preferential retention"}, {"measurement": "tumor exposure", "setting": "[4]; over a 4-hour and 24-hour period (FIG. 3)", "result": "preferential tumor exposure"}, {"measurement": "plasma levels versus tissue levels", "setting": "[5]", "result": "plasma levels underestimate tissue levels"}]}
